Assay: Forced degradation: stability of Compound I formulations in selected solvents and Carrier A (HPLC)
[1] = EtOH, 25° C./60% RH, t = 2 week

In the case of CC1=CC(=O)c2c(O)cccc2C1=O [Compound I, 5-hydroxy-2-methylnaphthalene-1,4-dione], the “Solution Stability in Selected Solvents, Purity” value (DMSO, 40° C./75% RH, t = 2 week) is reported as 89.26 % Area, the “Solution Stability in Selected Solvents, Purity” value (Diluent, 25° C./60% RH, t = 0) is reported as 99.77 % Area and the “Solution Stability in Selected Solvents, Purity” value (Diluent, 25° C./60% RH, t = 1 week) is reported as 99.76 % Area. The “Solution Stability in Selected Solvents, Purity” value (Diluent, 25° C./60% RH, t = 2 week) was 99.79 % Area, the “Solution Stability in Selected Solvents, Purity” value (Diluent, 40° C./75% RH, t = 1 week) was 99.81 % Area and the “Solution Stability in Selected Solvents, Purity” value (Diluent, 40° C./75% RH, t = 2 week) was 99.82 % Area. For the same molecule, the “Solution Stability in Selected Solvents, Purity” value (EA (poor chromatography observed with ethyl acetate), 25° C./60% RH, t = 0) was 80.16 % Area, the “Solution Stability in Selected Solvents, Purity” value (EA (poor chromatography), 25° C./60% RH, t = 1 week) was 77.38 % Area and the “Solution Stability in Selected Solvents, Purity” value (EA (poor chromatography), 25° C./60% RH, t = 2 week) was 76.03 % Area. For the same molecule, the “Solution Stability in Selected Solvents, Purity” value (EA (poor chromatography), 40° C./75% RH, t = 1 week) was 77.28 % Area, the “Solution Stability in Selected Solvents, Purity” value (EA (poor chromatography), 40° C./75% RH, t = 2 week) was 77.13 % Area and the “Solution Stability in Selected Solvents, Purity” value (EtOH, 25° C./60% RH, t = 0) was 99.37 % Area. For the same molecule, the “Solution Stability in Selected Solvents, Purity” value (EtOH, 25° C./60% RH, t = 1 week) was 96.08 % Area, the “Solution Stability in Selected Solvents, % Potency” value [1] was 93.35% and the “Solution Stability in Selected Solvents, Purity” value [1] was 92.82 % Area. For the same molecule, the “Solution Stability in Selected Solvents, Purity” value (EtOH, 40° C./75% RH, t = 1 week) was 91.99 % Area, the “Solution Stability in Selected Solvents, Purity” value (EtOH, 40° C./75% RH, t = 2 week) was 89.39 % Area and the “Solution Stability in Selected Solvents, Purity” value (IPA, 25° C./60% RH, t = 0) was 98.80 % Area. The “Solution Stability in Selected Solvents, Purity” value (IPA, 25° C./60% RH, t = 1 week) was 95.62 % Area, the “Solution Stability in Selected Solvents, Purity” value (IPA, 25° C./60% RH, t = 2 week) was 93.35 % Area and the “Solution Stability in Selected Solvents, Purity” value (IPA, 40° C./75% RH, t = 1 week) was 91.10 % Area. The “Solution Stability in Selected Solvents, Purity” value (IPA, 40° C./75% RH, t = 2 week) was 89.40 % Area, the “Solution Stability in Selected Solvents, Purity” value (MeOH, 25° C./60% RH, t = 0) was 99.32 % Area and the “Solution Stability in Selected Solvents, Purity” value (MeOH, 25° C./60% RH, t = 1 week) was 95.54 % Area. The “Solution Stability in Selected Solvents, Purity” value (MeOH, 25° C./60% RH, t = 2 week) was 88.79 % Area, the “Solution Stability in Selected Solvents, Purity” value (MeOH, 40° C./75% RH, t = 1 week) was 86.56 % Area and the “Solution Stability in Selected Solvents, Purity” value (MeOH, 40° C./75% RH, t = 2 week) was 83.85 % Area. The “Solution Stability in Selected Solvents, Purity” value (PEG 300, 25° C./60% RH, t = 0) was 98.52 % Area, the “Solution Stability in Selected Solvents, Purity” value (PEG 300, 25° C./60% RH, t = 1 week) was 88.59 % Area and the “Solution Stability in Selected Solvents, Purity” value (PEG 300, 25° C./60% RH, t = 2 week) was 80.73 % Area. For the same molecule, the “Solution Stability in Selected Solvents, Purity” value (PEG 300, 40° C./75% RH, t = 1 week) was 65.16 % Area, the “Solution Stability in Selected Solvents, Purity” value (PEG 300, 40° C./75% RH, t = 2 week) was 49.31 % Area and the “Solution Stability in Selected Solvents, Purity” value (PEG 400, 25° C./60% RH, t = 0) was 98.33 % Area. The “Solution Stability in Selected Solvents, Purity” value (PEG 400, 25° C./60% RH, t = 1 week) was 88.42 % Area, the “Solution Stability in Selected Solvents, Purity” value (PEG 400, 25° C./60% RH, t = 2 week) was 81.00 % Area and the “Solution Stability in Selected Solvents, Purity” value (PEG 400, 40° C./75% RH, t = 1 week) was 70.08 % Area. For the same molecule, the “Solution Stability in Selected Solvents, Purity” value (PEG 400, 40° C./75% RH, t = 2 week) was 49.07 % Area, the “Solution Stability in Selected Solvents, Purity” value (PG, 25° C./60% RH, t = 0) was 99.65 % Area and the “Solution Stability in Selected Solvents, Purity” value (PG, 25° C./60% RH, t = 1 week) was 99.14 % Area. The “Solution Stability in Selected Solvents, Purity” value (PG, 25° C./60% RH, t = 2 week) was 97.81 % Area, the “Solution Stability in Selected Solvents, Purity” value (PG, 40° C./75% RH, t = 1 week) was 97.49 % Area and the “Solution Stability in Selected Solvents, Purity” value (PG, 40° C./75% RH, t = 2 week) was 96.43 % Area. For the same molecule, the “Solution Stability in Selected Solvents, Purity” value (THF, 25° C./60% RH, t = 0) was 96.45 % Area, the “Solution Stability in Selected Solvents, Purity” value (THF, 25° C./60% RH, t = 1 week) was 94.19 % Area and the “Solution Stability in Selected Solvents, Purity” value (THF, 25° C./60% RH, t = 2 week) was 91.24 % Area. The “Solution Stability in Selected Solvents, Purity” value (THF, 40° C./75% RH, t = 1 week) was 92.54 % Area, the “Solution Stability in Selected Solvents, % Potency” value (THF, 40° C./75% RH, t = 2 week) was 99.82% and the “Solution Stability in Selected Solvents, Purity” value (THF, 40° C./75% RH, t = 2 week) was 89.34 % Area. For the same molecule, the “Compound I lost” value (Tween-20 or Tween-80 surfactant formulations) was ≥ 50%.

From US20180221306A1, “PHARMACEUTICAL COMPOSITIONS OF 5-HYDROXY-2-METHYLNAPHTHALENE-1,4-DIONE” (PellFiCure Pharmaceuticals, Inc., priority 2016, published 2018)
